For orientation: IC50 means the concentration at which inhibition is half-maximal. Low readings indicate greater potency in that assay, high ones weaker potency in that assay. Broadly, the MIC is the lowest concentration found to suppress growth. Read a high MIC as a need for much substance.

Structures are written as SMILES. In brackets after ≈: the same amount, converted by molar mass. Where only a bound is given, the exact number is not on record here.

Test [1] deals with hACC2 (Homo sapiens, UniProt O00763). The experiment in a line: In vitro ACC2 inhibition assay (ADP-Glo), human ACC2. The test is classed as biochemical. On the procedure:
(§1) An exemplary procedure for the in vitro ACC inhibition assay, which can be used to determine the inhibitory action of compounds of the invention toward either human (hACC2) or fungal (fACC2) ACC2, follows. The ADP-Glo™ Kinase Assay kit from Promega was used. The ADP-Glo™ Kinase Assay is a luminescent ADP detection assay to measure enzymatic activity by quantifying the amount of ADP produced during an enzyme reaction. The assay is performed in two steps; first, after the enzyme reaction, an equal volume of ADP-Glo™ Reagent is added to terminate the reaction and deplete the remaining ATP. Second, the Kinase Detection Reagent is added to simultaneously convert ADP to ATP and allow the newly synthesized ATP to be measured using a luciferase/luciferin reaction. Luminescence can be correlated to ADP concentrations by using an ATP-to-ADP conversion curve. The detailed procedure is as follows. 50 μL of the compound being tested (600 μM in DMSO) was added to a 384-well dilution plate. The compound was diluted 1:3 in succession in DMSO for each row for 11 wells. 0.5 μL ACC2 working solution was added to 384-well white Optiplate assay plate. 0.5 μL diluted compound solution in each column from step 2 was added to assay plate, each row containing 2 replicates. For the last 2 rows, 0.5 μL negative control (DMSO) was added in one row and 0.5 μL positive control (compound I-97) in the other. The plates were incubated at room temperature for 15 minutes. 5 μL substrate working solution was added to each well to initiate reaction. Final ACC2 reaction concentrations consist of: 5 nM ACC2, 20 μM ATP, 20 μM acetyl-CoA, 12 mM NaHCO3, 0.01% Brij35, 2 mM DTT, 5% DMSO, test compound concentrations: 30 μM, 10 μM, 3.33 μM, 1.11 μM, 0.37 μM, 0.123 μM, 0.0411 μM, 0.0137 μM, 0.00457 μM, 0.00152 μM, and 0.00051 μM. Plates were incubated at room temperature for 60 minutes. 10 μL ADP glo reagent was added. Plates were incubated at room temperature for 40 minutes. 20 μL kinase detection reagent was added. Plates were incubated at room temperature for 40 minutes, and then read on a Perkin Elmer EnVision 2104 plate reader for luminescence as Relative Light Units (RLU).
(§2) Data for each concentration, as well as the positive and negative controls, were averaged, and the standard deviation calculated. Percent inhibition was calculated by the formula: 100×(average negative control−compound)/(average negative control−average positive control). The IC50 for each compound was calculated by fitting the data with a non-linear regression equation: Y=Bottom+(Top−Bottom)/(1+10^((Log IC50−X)*HillSlope)), where X is the log of compound concentration and Y is percent inhibition.

Test [2] addresses fACC2 (UniProt Q00955). The experiment in a line: In vitro ACC2 inhibition assay (ADP-Glo), fungal ACC2. The test is classed as biochemical. On the procedure: as §1, §2
(ADP-Glo first removes unused ATP, then detects ADP through luciferase.)

Test [3] concerns C. parapsilosis ATCC 22019. The experiment in a line: Anti-Fungal (Candida) Activity Assay, broth microtiter MIC. Type of test: cell-based. The settings on record: Lodderomyces parapsilosis, ATCC22019, 48 h, 3 replicates, MIC read at 48 h. On the procedure:
(§3) Compounds of the present invention were evaluated in an Anti-Fungal Activity Assay. An exemplary procedure for the assay, which measures the susceptibility of various Candida species to anti-fungal compounds, follows. Compounds to be tested (including fluconazole and amphotericin B) were dissolved in DMSO to obtain a solution having a concentration of 1 mg/mL. These stock solutions were sterile filtered using a 0.22 um nylon syringe filter, then diluted in sterile water to achieve a final concentration of 128 μg/mL.
(§4) All species were grown from frozen stock by directly plating on to freshly prepared Sabouraud Dextrose agar (BD, Difco) and incubated overnight in ambient air at 35° C. for 24 h. A direct suspension was prepared in RPMI 1640+MOPS (Lonza, Biowhittaker) by taking individual colonies from the overnight cultures using sterile swabs soaked in sterile saline. The concentration of the suspension was determined using pre-determined standard curves. These suspensions were then diluted down to 5×10^3 CFU/mL to achieve a final concentration of 2.5×10^3 CFU/mL once added to the microtiter plate as per CLSI guidelines (M27-A3, Vol. 28 No. 14).
(§5) Broth microtiter MIC challenge plates were prepared following CLSI guidelines (M27-A3, Vol. 28 No. 14). The original CLSI guidelines focused on reading Candida MICs after 48 h of incubation. As reading after only 24 h offers a clear advantage of patient care, QC limits are being established for all drugs at 24 h. That being said there are no known interpretive breakpoints for amphotericin B at 24 h and the current fluconazole interpretive breakpoints are based on a 48 h reading. The MIC for the test compounds were recorded at 48 h. All MIC determinations were achieved by visually comparing the growth found in the antibiotic challenged wells to that of the growth control.

Test [4] concerns C. albicans ATCC 90028. Described as above. The conditions noted are these: ATCC90028, 48 h, 3 replicates, MIC read at 48 h. Type of test: cell-based. On the procedure: as §3, §4, §5

Sequence of fACC2 (Q00955 whole entry): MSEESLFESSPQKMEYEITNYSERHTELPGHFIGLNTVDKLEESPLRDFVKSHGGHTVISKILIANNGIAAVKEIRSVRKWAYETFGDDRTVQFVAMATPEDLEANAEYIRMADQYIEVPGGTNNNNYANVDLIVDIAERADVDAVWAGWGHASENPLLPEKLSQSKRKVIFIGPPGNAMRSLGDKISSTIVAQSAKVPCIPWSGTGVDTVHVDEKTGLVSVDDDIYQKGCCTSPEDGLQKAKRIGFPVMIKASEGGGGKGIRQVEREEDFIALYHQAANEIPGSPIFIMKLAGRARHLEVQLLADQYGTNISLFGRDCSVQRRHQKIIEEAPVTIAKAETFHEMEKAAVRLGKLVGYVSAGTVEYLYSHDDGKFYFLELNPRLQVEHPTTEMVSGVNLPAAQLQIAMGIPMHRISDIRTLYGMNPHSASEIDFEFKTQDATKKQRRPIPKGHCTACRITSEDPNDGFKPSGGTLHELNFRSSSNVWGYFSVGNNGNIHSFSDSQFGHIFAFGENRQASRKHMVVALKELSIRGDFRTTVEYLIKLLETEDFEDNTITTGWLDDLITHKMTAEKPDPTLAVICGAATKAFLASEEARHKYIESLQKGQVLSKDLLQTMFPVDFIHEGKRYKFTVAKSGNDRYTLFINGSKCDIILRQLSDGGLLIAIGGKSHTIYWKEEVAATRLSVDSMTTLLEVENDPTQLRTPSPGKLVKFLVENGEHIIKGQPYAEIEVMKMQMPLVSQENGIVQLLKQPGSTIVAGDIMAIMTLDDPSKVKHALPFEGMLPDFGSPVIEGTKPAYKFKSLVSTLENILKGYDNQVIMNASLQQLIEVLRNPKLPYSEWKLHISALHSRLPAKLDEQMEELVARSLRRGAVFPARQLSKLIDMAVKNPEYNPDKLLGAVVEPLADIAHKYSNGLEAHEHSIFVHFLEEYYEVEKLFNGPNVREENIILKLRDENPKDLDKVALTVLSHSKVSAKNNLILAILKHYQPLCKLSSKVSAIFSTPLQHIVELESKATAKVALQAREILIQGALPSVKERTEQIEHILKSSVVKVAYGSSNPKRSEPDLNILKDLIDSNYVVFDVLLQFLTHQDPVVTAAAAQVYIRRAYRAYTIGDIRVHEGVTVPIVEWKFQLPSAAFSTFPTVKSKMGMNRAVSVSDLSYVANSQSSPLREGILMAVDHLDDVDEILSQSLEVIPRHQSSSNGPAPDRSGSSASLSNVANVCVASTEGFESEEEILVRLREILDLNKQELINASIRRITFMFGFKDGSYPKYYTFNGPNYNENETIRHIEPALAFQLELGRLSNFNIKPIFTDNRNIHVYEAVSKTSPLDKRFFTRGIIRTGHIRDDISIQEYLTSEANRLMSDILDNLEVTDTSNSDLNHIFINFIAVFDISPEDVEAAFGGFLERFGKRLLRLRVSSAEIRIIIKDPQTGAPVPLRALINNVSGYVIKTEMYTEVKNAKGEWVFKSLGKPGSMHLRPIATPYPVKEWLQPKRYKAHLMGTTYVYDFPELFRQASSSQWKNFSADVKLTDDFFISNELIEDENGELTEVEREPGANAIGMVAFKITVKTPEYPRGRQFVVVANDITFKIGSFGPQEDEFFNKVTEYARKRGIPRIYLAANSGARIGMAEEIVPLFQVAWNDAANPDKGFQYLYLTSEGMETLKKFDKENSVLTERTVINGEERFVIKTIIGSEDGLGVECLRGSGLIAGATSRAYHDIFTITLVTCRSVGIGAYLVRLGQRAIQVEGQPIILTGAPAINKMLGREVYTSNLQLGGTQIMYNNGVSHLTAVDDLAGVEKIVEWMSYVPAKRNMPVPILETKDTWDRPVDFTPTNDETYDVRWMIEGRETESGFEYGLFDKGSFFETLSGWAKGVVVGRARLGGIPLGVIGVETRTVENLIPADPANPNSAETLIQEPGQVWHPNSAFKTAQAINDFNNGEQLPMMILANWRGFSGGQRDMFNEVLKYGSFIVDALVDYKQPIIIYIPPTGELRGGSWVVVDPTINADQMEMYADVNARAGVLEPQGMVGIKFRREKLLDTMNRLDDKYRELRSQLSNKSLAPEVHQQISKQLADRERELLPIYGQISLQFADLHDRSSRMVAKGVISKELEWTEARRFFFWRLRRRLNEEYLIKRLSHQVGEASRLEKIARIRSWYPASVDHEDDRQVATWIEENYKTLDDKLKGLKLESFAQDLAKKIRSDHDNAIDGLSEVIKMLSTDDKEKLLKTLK
Sequence of hACC2 (O00763 whole entry): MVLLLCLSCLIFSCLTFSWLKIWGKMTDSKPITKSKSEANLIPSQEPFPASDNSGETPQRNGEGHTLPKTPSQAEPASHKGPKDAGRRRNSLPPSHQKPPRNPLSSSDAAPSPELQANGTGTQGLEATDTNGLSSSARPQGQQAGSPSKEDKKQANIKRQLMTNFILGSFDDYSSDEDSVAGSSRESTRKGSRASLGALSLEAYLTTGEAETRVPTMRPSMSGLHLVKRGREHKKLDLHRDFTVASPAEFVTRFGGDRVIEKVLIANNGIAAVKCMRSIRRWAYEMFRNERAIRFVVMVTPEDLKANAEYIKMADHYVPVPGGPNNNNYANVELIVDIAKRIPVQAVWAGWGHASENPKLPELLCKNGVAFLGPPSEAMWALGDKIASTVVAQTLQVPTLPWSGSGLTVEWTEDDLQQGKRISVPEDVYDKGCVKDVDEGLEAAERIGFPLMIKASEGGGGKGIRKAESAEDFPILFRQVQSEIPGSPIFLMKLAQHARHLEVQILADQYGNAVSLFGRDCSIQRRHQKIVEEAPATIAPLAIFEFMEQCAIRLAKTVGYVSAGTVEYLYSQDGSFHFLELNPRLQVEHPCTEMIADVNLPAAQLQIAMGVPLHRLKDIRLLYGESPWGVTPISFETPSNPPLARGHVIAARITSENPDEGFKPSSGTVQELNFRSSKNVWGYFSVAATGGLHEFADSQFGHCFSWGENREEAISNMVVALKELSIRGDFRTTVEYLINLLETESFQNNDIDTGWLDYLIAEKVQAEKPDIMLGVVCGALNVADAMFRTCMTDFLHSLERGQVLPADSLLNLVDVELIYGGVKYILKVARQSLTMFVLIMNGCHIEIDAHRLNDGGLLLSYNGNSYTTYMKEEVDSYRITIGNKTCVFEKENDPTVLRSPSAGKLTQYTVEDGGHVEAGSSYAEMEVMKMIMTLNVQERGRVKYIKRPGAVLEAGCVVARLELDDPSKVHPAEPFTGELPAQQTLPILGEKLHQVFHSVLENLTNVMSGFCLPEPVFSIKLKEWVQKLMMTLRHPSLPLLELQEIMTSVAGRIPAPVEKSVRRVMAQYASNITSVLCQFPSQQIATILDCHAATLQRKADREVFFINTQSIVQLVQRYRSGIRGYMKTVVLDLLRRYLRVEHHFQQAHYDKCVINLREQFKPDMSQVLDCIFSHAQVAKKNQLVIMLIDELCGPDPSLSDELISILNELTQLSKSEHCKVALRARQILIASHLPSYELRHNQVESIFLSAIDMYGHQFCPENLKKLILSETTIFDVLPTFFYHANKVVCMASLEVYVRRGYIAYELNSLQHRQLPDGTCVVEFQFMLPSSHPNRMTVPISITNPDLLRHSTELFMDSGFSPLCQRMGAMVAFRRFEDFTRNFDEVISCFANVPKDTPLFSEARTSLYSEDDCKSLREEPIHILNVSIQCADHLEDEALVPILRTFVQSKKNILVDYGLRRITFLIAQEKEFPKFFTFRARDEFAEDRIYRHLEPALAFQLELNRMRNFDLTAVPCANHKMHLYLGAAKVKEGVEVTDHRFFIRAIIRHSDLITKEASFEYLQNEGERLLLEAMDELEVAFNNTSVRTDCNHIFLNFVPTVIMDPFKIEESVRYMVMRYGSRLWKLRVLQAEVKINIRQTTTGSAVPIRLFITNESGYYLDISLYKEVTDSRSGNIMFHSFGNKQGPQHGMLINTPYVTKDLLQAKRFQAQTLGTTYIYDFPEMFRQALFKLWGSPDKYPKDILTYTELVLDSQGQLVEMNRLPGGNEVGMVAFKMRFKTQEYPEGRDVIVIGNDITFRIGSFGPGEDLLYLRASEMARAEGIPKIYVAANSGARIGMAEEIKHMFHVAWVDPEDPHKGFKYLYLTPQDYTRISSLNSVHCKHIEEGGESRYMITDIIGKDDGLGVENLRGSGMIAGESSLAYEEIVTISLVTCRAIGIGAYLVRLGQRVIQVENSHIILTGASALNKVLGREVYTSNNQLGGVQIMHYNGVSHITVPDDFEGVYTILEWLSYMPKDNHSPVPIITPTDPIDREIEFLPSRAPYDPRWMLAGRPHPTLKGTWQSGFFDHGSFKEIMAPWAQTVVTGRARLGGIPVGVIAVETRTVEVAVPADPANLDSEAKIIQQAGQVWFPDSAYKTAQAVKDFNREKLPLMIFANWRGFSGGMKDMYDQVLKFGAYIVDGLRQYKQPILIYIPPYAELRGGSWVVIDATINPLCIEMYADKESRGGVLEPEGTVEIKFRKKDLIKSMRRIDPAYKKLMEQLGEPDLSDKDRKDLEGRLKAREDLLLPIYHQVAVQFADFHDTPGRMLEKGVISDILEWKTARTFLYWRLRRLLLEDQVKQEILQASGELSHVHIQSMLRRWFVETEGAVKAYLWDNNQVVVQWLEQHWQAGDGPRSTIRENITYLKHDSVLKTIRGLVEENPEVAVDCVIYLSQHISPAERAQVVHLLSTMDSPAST

Take `CCOC(=O)c1sc2c(c1C)c(=O)n(C(C)(C)C(N)=O)c(=O)n2C[C@H](OCCOC)c1cc(F)ccc1OC` [Compound I-10, (R)-ethyl 3-(1-amino-2-methyl-1-oxopropan-2-yl)-1-(2-(5-fluoro-2-methoxyphenyl)-2-(2-methoxyethoxy)ethyl)-5-methyl-2,4-dioxo-1,2,3,4-tetrahydrothieno[2,3-d]pyrimidine-6-carboxylate]: the half-inhibitory concentration (IC50) in test [1] (Table 2a) was no less than 40 nM; in test [1] (Table 2b (additional results)), no less than 40 nM; in test [2] (Table 2a), 3 to 10 nM; in test [2] (Table 2b (additional results)), 3 to 10 nM. Moreover, the MIC was greater than 4.1 µg/mL in test [3] (Table 3a), 2.1 to 4 µg/mL (≈ 3.71 to 7.07 µM) in test [3] (Table 3b (additional results)), greater than 4.1 µg/mL in test [4] (Table 3a) and 2.1 to 4 µg/mL (≈ 3.71 to 7.07 µM) in test [4] (Table 3b (additional results)).
On to `CCOC(=O)c1sc2c(c1C)c(=O)n(C(C)(C)C(=O)NC(C)C)c(=O)n2C[C@H](OCCOC)c1cc(F)ccc1OC` [Compound I-11, (R)-ethyl 1-(2-(5-fluoro-2-methoxyphenyl)-2-(2-methoxy-ethoxy)ethyl)-3-(1-(isopropylamino)-2-methyl-1-oxopropan-2-yl)-5-methyl-2,4-dioxo-1,2,3,4-tetrahydrothieno[2,3-d]pyrimidine-6-carboxylate], for which the IC50 in test [1] (Table 2a) lay within 10 to 40 nM; in test [1] (Table 2b (additional results)), 10 to 40 nM; in test [2] (Table 2a) it was 0.6 to 3 nM; in test [2] (Table 2b (additional results)), 0.3 to 3 nM. In addition, the MIC was 2.1 to 4 µg/mL (≈ 3.46 to 6.58 µM) in test [3] (Table 3a), 1.1 to 2 µg/mL (≈ 1.81 to 3.29 µM) in test [3] (Table 3b (additional results)), 2.1 to 4 µg/mL (≈ 3.46 to 6.58 µM) in test [4] (Table 3a) and 2.1 to 4 µg/mL (≈ 3.46 to 6.58 µM) in test [4] (Table 3b (additional results)).
For `CCOC(=O)c1sc2c(c1C)c(=O)n(C(C)(C)C(=O)N1CCCC1)c(=O)n2C[C@H](OCCO)c1cc(F)ccc1OC` [Compound I-12, (R)-ethyl 1-(2-(5-fluoro-2-methoxyphenyl)-2-(2-hydroxy-ethoxy)ethyl)-5-methyl-3-(2-methyl-1-oxo-1-(pyrrolidin-1-yl)propan-2-yl)-2,4-dioxo-1,2,3,4-tetrahydrothieno[2,3-d]pyrimidine-6-carboxylate], the concentration for half-maximal inhibition (IC50) in test [1] (Table 2a) was in the range of 3 to 10 nM; in test [1] (Table 2b (additional results)), 3 to 10 nM; in test [2] (Table 2a), 0.6 to 3 nM; in test [2] (Table 2b (additional results)) it was 0.3 to 3 nM. The MIC in test [3] (Table 3a) is greater than 4.1 µg/mL; in test [3] (Table 3b (additional results)), 0.25 to 1 µg/mL (≈ 0.413 to 1.65 µM); in test [4] (Table 3a), greater than 4.1 µg/mL; in test [4] (Table 3b (additional results)), 2.1 to 4 µg/mL (≈ 3.47 to 6.6 µM).
With `CCOC(=O)c1sc2c(c1C)c(=O)n(C(C)(C)C(=O)N1CCCC1)c(=O)n2C[C@H](OCCOC)c1cc(F)ccc1OC` [Compound I-13, (R)-ethyl 1-(2-(5-fluoro-2-methoxyphenyl)-2-(2-methoxy-ethoxy)ethyl)-5-methyl-3-(2-methyl-1-oxo-1-(pyrrolidin-1-yl)propan-2-yl)-2,4-dioxo-1,2,3,4-tetrahydrothieno[2,3-d]pyrimidine-6-carboxylate], the IC50 lay in the range of 10 to 40 nM in test [1] (Table 2a) and 0.6 to 3 nM in test [2] (Table 2a). Further, the minimal inhibitory concentration (MIC) in test [3] (Table 3a) was greater than 4.1 µg/mL; in test [3] (Table 3b (additional results)) it was 2.1 to 4 µg/mL (≈ 3.39 to 6.45 µM); in test [4] (Table 3a) it was greater than 4.1 µg/mL; in test [4] (Table 3b (additional results)) it was 2.1 to 4 µg/mL (≈ 3.39 to 6.45 µM).
For the compound `CCOC(=O)c1sc2c(c1C)c(=O)n(C(C)(C)C(N)=O)c(=O)n2C[C@H](OCCC#N)c1cc(F)ccc1OC` [Compound I-14, (R)-ethyl 3-(1-amino-2-methyl-1-oxopropan-2-yl)-1-(2-(2-cyanoethoxy)-2-(5-fluoro-2-methoxyphenyl)ethyl)-5-methyl-2,4-dioxo-1,2,3,4-tetrahydro-thieno[2,3-d]pyrimidine-6-carboxylate], the figures for the concentration for half-maximal inhibition (IC50) in test [1] (Table 2a), in test [2] (Table 2a) and in test [2] (Table 2b (additional results)) were 3 to 10 nM, 0.6 to 3 nM and 0.3 to 3 nM, respectively. Moreover, the minimum inhibitory concentration (MIC) in test [3] (Table 3a) is greater than 4.1 µg/mL; in test [3] (Table 3b (additional results)), 1.1 to 2 µg/mL (≈ 1.96 to 3.57 µM); in test [4] (Table 3a), greater than 4.1 µg/mL; in test [4] (Table 3b (additional results)), 2.1 to 4 µg/mL (≈ 3.75 to 7.14 µM).
As for `CCOC(=O)c1sc2c(c1C)c(=O)n(C(C)(C)C(=O)NC(C)C)c(=O)n2C[C@H](OCCC#N)c1cc(F)ccc1OC` [Compound I-15, (R)-ethyl 1-(2-(2-cyanoethoxy)-2-(5-fluoro-2-methoxy-phenyl)ethyl)-3-(1-(isopropylamino)-2-methyl-1-oxopropan-2-yl)-5-methyl-2,4-dioxo-1,2,3,4-tetrahydrothieno[2,3-d]pyrimidine-6-carboxylate], the 50% inhibitory concentration (IC50) in test [1] (Table 2a) is 10 to 40 nM; in test [1] (Table 2b (additional results)) it was 3 to 10 nM; in test [2] (Table 2a) it was 0.6 to 3 nM; in test [2] (Table 2b (additional results)), 0.3 to 3 nM. For the same compound, the MIC in test [3] (Table 3a) was 0.25 to 1 µg/mL (≈ 0.415 to 1.66 µM); in test [3] (Table 3b (additional results)) it was 2.1 to 4 µg/mL (≈ 3.48 to 6.64 µM); in test [4] (Table 3a), 0.25 to 1 µg/mL (≈ 0.415 to 1.66 µM); in test [4] (Table 3b (additional results)) it was 0.25 to 1 µg/mL (≈ 0.415 to 1.66 µM).
Regarding `CCOC(=O)c1sc2c(c1C)c(=O)n(C(C)(C)C(=O)N1CCCC1)c(=O)n2C[C@H](OCCC#N)c1cc(F)ccc1OC` [Compound I-16, (R)-ethyl 1-(2-(2-cyanoethoxy)-2-(5-fluoro-2-methoxy-phenyl)ethyl)-5-methyl-3-(2-methyl-1-oxo-1-(pyrrolidin-1-yl)propan-2-yl)-2,4-dioxo-1,2,3,4-tetrahydrothieno[2,3-d]pyrimidine-6-carboxylate], the IC50 lay in the range of 3 to 10 nM in test [1] (Table 2a), 0.6 to 3 nM in test [2] (Table 2a) and 0.3 to 3 nM in test [2] (Table 2b (additional results)). Moreover, the MIC in test [3] (Table 3a) was greater than 4.1 µg/mL; in test [3] (Table 3b (additional results)), 0.25 to 1 µg/mL (≈ 0.407 to 1.63 µM); in test [4] (Table 3a) it was greater than 4.1 µg/mL; in test [4] (Table 3b (additional results)), 2.1 to 4 µg/mL (≈ 3.42 to 6.51 µM).
Regarding `CCOC(=O)c1sc2c(c1C)c(=O)n(C(C)(C)C(N)=O)c(=O)n2C[C@H](OCCO)c1cc(F)ccc1OC` [Compound I-17, (R)-ethyl 3-(1-amino-2-methyl-1-oxopropan-2-yl)-1-(2-(5-fluoro-2-methoxyphenyl)-2-(2-hydroxyethoxy)ethyl)-5-methyl-2,4-dioxo-1,2,3,4-tetrahydro-thieno[2,3-d]pyrimidine-6-carboxylate], the IC50 in test [1] (Table 2a) is 10 to 40 nM; in test [2] (Table 2a), 0.6 to 3 nM; in test [2] (Table 2b (additional results)), 0.3 to 3 nM. In addition, the MIC was greater than 4.1 µg/mL in test [3] (Table 3a), 1.1 to 2 µg/mL (≈ 1.99 to 3.63 µM) in test [3] (Table 3b (additional results)), greater than 4.1 µg/mL in test [4] (Table 3a) and 2.1 to 4 µg/mL (≈ 3.81 to 7.25 µM) in test [4] (Table 3b (additional results)).
In the case of `CCOC(=O)c1sc2c(c1C)c(=O)n(C(C)(C)C(=O)NC(C)C)c(=O)n2C[C@H](OCCO)c1cc(F)ccc1OC` [Compound I-18, (R)-ethyl 1-(2-(5-fluoro-2-methoxyphenyl)-2-(2-hydroxy-ethoxy)ethyl)-3-(1-(isopropylamino)-2-methyl-1-oxopropan-2-yl)-5-methyl-2,4-dioxo-1,2,3,4-tetrahydrothieno[2,3-d]pyrimidine-6-carboxylate], the IC50 fell in the range of 10 to 40 nM in test [1] (Table 2a) and 0.6 to 3 nM in test [2] (Table 2a). For the same compound, the MIC in test [3] (Table 3a) was 2.1 to 4 µg/mL (≈ 3.54 to 6.74 µM); in test [3] (Table 3b (additional results)), 1.1 to 2 µg/mL (≈ 1.85 to 3.37 µM); in test [4] (Table 3a) it was 1.1 to 2 µg/mL (≈ 1.85 to 3.37 µM); in test [4] (Table 3b (additional results)) it was 1.1 to 2 µg/mL (≈ 1.85 to 3.37 µM).

The values are drawn from patent publication US11098055B2, “Ester ACC inhibitors and uses thereof” (Gilead Apollo, LLC, priority 2015, dated 2021).
